Data published in the supplement of paper PMC10307832.

Assays:
Experiment in all cases: relative viability (nuclei count vs DMSO), 5 days (fraction); higher = more cells survive
Masitinib + Tozasertib = compound: Cc1ccc(NC(=O)c2ccc(CN3CCN(C)CC3)cc2)cc1Nc1nc(-c2cccnc2)cs1 [Masitinib] + Cc1cc(Nc2cc(N3CCN(C)CC3)nc(Sc3ccc(NC(=O)C4CC4)cc3)n2)n[nH]1 [Tozasertib] (partner 0.1 µM)
Outline: (§1)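 Values are medians from duplicate plates. Each reflects relative viability, defined as the nuclei count of treated wells over that of vehicle wells. Lung cancer cell lines in 1536-well plates were pin-tool dosed one day after seeding with one drug alone or with a fixed anchor-drug dose plus five library-drug doses (not always all listed) in √10 steps, then fixed, stained and imaged at 4× after 5 days.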

[1] = compound: CC1=CC(=CC=C1)NC2=NC(=CS2)C3=CC=NC=C3 + Nc1ncn([C@H]2C[C@H](O)[C@@H](CO)O2)c(=O)n1 [Decitabine] (partner 2 µM)
Outline: as §1

Masitinib + Vorinostat = compound: Cc1ccc(NC(=O)c2ccc(CN3CCN(C)CC3)cc2)cc1Nc1nc(-c2cccnc2)cs1 [Masitinib] + O=C(CCCCCCC(=O)Nc1ccccc1)NO [Vorinostat] (partner 1 µM)
Outline: as §1

[2] = compound: CC1=CC(=CC=C1)NC2=NC(=CS2)C3=CC=NC=C3 + C[C@@H](Oc1cc(-c2cnn(C3CCNCC3)c2)cnc1N)c1c(Cl)ccc(F)c1Cl [Crizotinib] (partner 1 µM)
Outline: as §1

Cell Line	relative viability (Masitinib + Tozasertib; first compound 0.01 µM)	relative viability (Masitinib + Tozasertib; first compound 0.03162 µM)	relative viability (Masitinib + Tozasertib; first compound 0.1 µM)	relative viability (Masitinib + Tozasertib; first compound 0.3162 µM)	relative viability (Masitinib + Tozasertib; first compound 1 µM)	relative viability ([1]; first compound 0.08 µM)	relative viability ([1]; first compound 0.253 µM)	relative viability ([1]; first compound 0.8 µM)	relative viability ([1]; first compound 2.53 µM)	relative viability ([1]; first compound 8 µM)	relative viability (Masitinib + Vorinostat; first compound 0.01 µM)	relative viability (Masitinib + Vorinostat; first compound 0.03162 µM)	relative viability (Masitinib + Vorinostat; first compound 0.1 µM)	relative viability (Masitinib + Vorinostat; first compound 0.3162 µM)	relative viability (Masitinib + Vorinostat; first compound 1 µM)	relative viability ([2]; first compound 0.08 µM)	relative viability ([2]; first compound 0.253 µM)	relative viability ([2]; first compound 0.8 µM)	relative viability ([2]; first compound 2.53 µM)	relative viability ([2]; first compound 8 µM)
NCI-H647	0.212	0.209	0.394	0.261	0.232	0.3	0.437	0.443	0.365	0.436	0.503	0.533	0.592	0.693	0.619	1.04	0.909	0.953	1.02	0.86
NCI-H441	0.67	0.571	0.637	0.7	0.473	0.266	0.263	0.302	0.226	0.243	0.856	0.75	1.12	1.01	0.894	0.751	0.831	0.791	0.69	0.663
NCI-H1355	0.534	0.469	0.561	0.384	0.394	0.347	0.311	0.351	0.318	0.356	0.631	0.518	0.633	0.464	0.577	1.02	0.781	0.705	0.701	0.61
NCI-H23	0.336	0.313	0.4	0.223	0.263	0.327	0.274	0.32	0.299	0.32	0.564	0.462	0.547	0.454	0.501	0.417	0.469	0.474	0.531	0.526
NCI-H650	0.642	0.732	0.717	0.745	0.665	0.331	0.3	0.336	0.386	0.334	0.458	0.527	0.415	0.484	0.404	0.683	0.724	0.615		0.914
NCI-H358	0.118	0.0987	0.114	0.113	0.104	0.233	0.22	0.208	0.249	0.225	0.72	0.658	0.773	0.641	0.616	0.509	0.576	0.562	0.542	0.512
NCI-H2087	0.317	0.22	0.239	0.211	0.236	0.264	0.293	0.281	0.263	0.238	0.532	0.828	0.672	0.72	0.746	0.895	1.04	0.847	0.67	0.838
NCI-H838	0.25	0.281	0.273	0.206	0.236	0.458	0.473	0.501	0.448	0.457	0.7	0.664	0.773	0.639	0.703	0.817	0.661	0.749	0.819	0.682
